Where “and” joins values, the source holds several entries; their conditions need not be identical. Equal values may be shown once.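 Tested at 5 concentrations; 48 h exposure; 96-well plates; endpoints linearly interpolated, else capped at highest concentration. GI50 = concentration required for 50% inhibition of growth. TGI is the concentration that stops growth completely.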
How the values were obtained:
Assay in all cases: growth of human tumour cells (NCI), 48 h
[1] = tested on: EKVX NSCLC
[2] = tested on: HCT-116 colon
[3] = tested on: HOP-62 NSCLC
[4] = tested on: HOP-92 NSCLC
[5] = tested on: KM12 colon
[6] = tested on: MALME-3M melanoma
[7] = tested on: MOLT-4 leukemia
[8] = tested on: SF-268 CNS
[9] = tested on: UO-31 renal

Structure (SMILES)	TGI [1]	TGI [2]	TGI [3]	TGI [4]	TGI [5]	TGI [6]	TGI [7]	TGI [8]	TGI [9]	GI50 [1]	GI50 [2]	GI50 [3]	GI50 [4]	GI50 [5]	GI50 [6]	GI50 [7]	GI50 [8]	GI50 [9]
CCOC(=O)C1=C(NNC(=O)Cc2ccccc2)CSC1=Nc1ccccc1	> 100 µM	> 100 µM	> 100 µM	> 100 µM	> 100 µM	> 100 µM	> 100 µM	> 100 µM	> 100 µM									
O=c1c2cc(Br)ccc2nc(-c2ccccc2Cl)n1NCC1(O)OCC(O)C(O)C1O (centres undefined)	> 100 µM	> 100 µM	> 100 µM		> 100 µM	> 100 µM	> 100 µM	> 100 µM	> 100 µM									
N#C/C(=C1\NN=C(N)C(c2ccc(Cl)cc2)=C1O)c1ccc(Cl)cc1	> 100 µM	> 100 µM	> 100 µM	> 100 µM	> 100 µM	> 100 µM	> 100 µM	> 100 µM	> 100 µM									
O=C(O)CCSCCCN1C(=O)c2ccccc2C1=O	> 100 µM	> 100 µM		> 100 µM	> 100 µM	> 100 µM	> 100 µM	> 100 µM	> 100 µM									
[C-]#[O+].[C-]#[O+].[C-]#[O+].[C-]#[O+].[Ir].[Ir].[O-]c1ccc2ccccc2c1C=Nc1ccc(N=Cc2c([O-])ccc3ccccc23)cc1	> 100 µM	> 100 µM	> 100 µM	> 100 µM	> 100 µM	> 100 µM	> 100 µM	> 100 µM	> 100 µM	> 100 µM	> 100 µM	> 100 µM	40 µM	> 100 µM	> 100 µM	37.1 µM	> 100 µM	> 100 µM
CC(CN1CCN(C)CC1)CN1c2ccccc2Sc2ccc(C(F)(F)F)cc21 (centres undefined)	5.38 µM	3.07 µM	3.17 µM	4.38 µM	3.52 µM	3.72 µM	4.77 µM	9.29 µM	6.4 µM	2.1 µM	1.68 µM	1.71 µM	1.25 µM	1.95 µM	1.72 µM	2.05 µM	3.1 µM	1.8 µM
COc1ccc(C2=NN(C(=O)COc3ccc(Cl)cc3)C(O)(c3ccc(Cl)cc3)C2)cc1 (centres undefined)		> 100 µM	> 100 µM	> 100 µM	> 100 µM	> 100 µM	> 100 µM	> 100 µM	> 100 µM									
CS(=O)(=O)OCCn1cnc2nc(NC(=O)c3ccccc3)[nH]c(=O)c21	> 100 µM	> 100 µM	> 100 µM	> 100 µM	> 100 µM	> 100 µM		> 100 µM	> 100 µM									
CC(=O)Nc1ccc(/C=N\N2C(=O)c3ccccc3C2=O)cc1	> 100 µM	> 100 µM	> 100 µM	> 100 µM	> 100 µM	> 100 µM	> 100 µM	> 100 µM	> 100 µM									
C[C@H]1[C@H](C)CC[C@]2(C(=O)N3CCN(C)CC3)CC[C@]3(C)C(=CC[C@@H]4[C@@]5(C)C/C(=C/c6cccnc6)C(=O)C(C)(C)[C@@H]5CC[C@]43C)[C@H]12	2.99 µM	1.89 µM	3.11 µM	1.84 µM	2.56 µM	2.45 µM	5.75 µM	3.05 µM	2.16 µM	1.59 µM	0.669 µM	1.58 µM	0.446 µM	0.976 µM	1.08 µM	1.92 µM	1.47 µM	0.775 µM
CC1CC2C(=O)N(c3ccccc3)C(=O)C2c2c1c1ccccc1n2Cc1ccccc1 (centres undefined)	> 100 µM	> 100 µM	> 100 µM	> 100 µM	> 100 µM	> 100 µM	> 100 µM	> 100 µM	> 100 µM									
CC(C)(O)C1CCC(Nc2ccc3ncc(-c4cccc(C(F)(F)F)c4)n3n2)CC1 (centres undefined)	> 100 µM	18.5 µM	11.8 µM		11.7 µM	13.6 µM	7.02 µM	18.2 µM	11 µM	3.82 µM	3.54 µM	2.37 µM		0.132 µM	2.25 µM	1.8 µM	3.79 µM	1.07 µM
O=C(/C=C/c1ccc(Cl)c(Cl)c1)c1ccc(F)cc1	55.3 µM	20.3 µM	> 100 µM	72.1 µM	21.9 µM	83.4 µM	38 µM	56.3 µM	> 100 µM									
CC1CC(c2cccc3c2OCO3)=Nc2ccccc2S1 (centres undefined)	> 100 µM			> 100 µM	> 100 µM	> 100 µM	> 100 µM	> 100 µM	> 100 µM									
C/C([O-])=C1\Cc2ccccc2C1=O.C/C([O-])=C1\Cc2ccccc2C1=O.CC[O-].CC[O-].[Ti+4]	> 100 µM	> 61.3 µM	50.3 µM	55.4 µM	46.1 µM	> 59.8 µM	> 46.4 µM	47.3 µM	70.6 µM	29.6 µM	17.3 µM	13 µM	18.7 µM	17.3 µM	18.8 µM	16.5 µM	17.1 µM	20.2 µM
CC1=C(C(=O)Nc2cccc(Cl)c2)C(c2ccc([N+](=O)[O-])cc2)C(C(=O)Nc2cccc(Cl)c2)=C(C)N1	> 100 µM	71.9 µM	> 100 µM	31.1 µM	52.9 µM	59.5 µM	56.2 µM	> 100 µM	65.4 µM									
O=C1C=C[C@@]23C[C@@H](Nc4c(O)c5c6c(c42)=NCCC=6C=N5)SC3=C1	20.2 µM	4.03 µM		10.2 µM	18.5 µM	2.52 µM		10.1 µM	22.8 µM	7.74 µM			3.18 µM				3.04 µM	
CC(/C(=N/NC(=O)C(N)=O)c1c(Cl)ccc(Cl)c1O)C1(O)C(=O)Nc2ccccc21 (centres undefined)	> 100 µM	> 100 µM	> 100 µM	75.2 µM	> 100 µM	> 100 µM		> 100 µM	> 100 µM									
NC(=NC1CCCCCCC1)c1ccc(N2CCN(c3ccc(C(N)=NC4CCCCCCC4)cc3)CC2)cc1			62.8 µM	79.9 µM	19.1 µM		> 100 µM	42.7 µM	> 100 µM			14.4 µM	25.1 µM	5.3 µM		47.8 µM	16.7 µM	48.3 µM
C=C1C(=O)OC2C1CC[C@H](C)C13OC(=O)CC1[C@@]23C (some centres undefined)	> 100 µM	> 100 µM		> 100 µM	> 100 µM	> 100 µM	> 100 µM	> 100 µM	> 100 µM									
O=c1c2cccc3cccc(c4oc5c6cccc7cccc(c(=O)c5c14)c76)c32	23.3 µM	17 µM	> 100 µM	15.2 µM	21.2 µM	17.9 µM	21.5 µM	19.6 µM	23.1 µM									
OCC(O)C(OC1OC(CO)C(O)C(O)C1O)c1nn(-c2ccccc2)c2nc3cc(Cl)c(Cl)cc3cc12 (centres undefined)	> 100 µM	> 100 µM	> 100 µM		> 100 µM	> 100 µM	> 100 µM	> 100 µM	> 100 µM									
COCC1N=C(c2cc(OC)c(OC)c(OC)c2-c2cc3c(cc2C2OCCCO2)OCO3)O[C@H]1c1ccccc1 (some centres undefined)	> 100 µM	> 100 µM	> 100 µM	> 100 µM	> 100 µM	> 100 µM	> 100 µM	> 100 µM	> 100 µM									
Nc1ccn(CCO)c(=O)n1	> 100 µM	> 100 µM	> 100 µM	> 100 µM	> 100 µM	> 100 µM		> 100 µM	> 100 µM									
O=C1OC(CC(=O)c2ccc(Cl)cc2Cl)C(Cl)=C1Cl (centres undefined)	> 76.9 µM	32.9 µM	> 100 µM	39.7 µM	> 100 µM	39.2 µM	66.7 µM	62.7 µM	> 56.7 µM									
Fc1cccc2cc3ccc4cccc5ccc(c12)c3c45	> 100 µM	> 100 µM	> 100 µM		> 100 µM	> 100 µM	> 100 µM	> 100 µM	> 100 µM									
CCCCCCCCC(=O)N(C)C1C2CN3CCC(O2)C13 (centres undefined)	> 100 µM	> 100 µM	> 100 µM		> 100 µM	> 100 µM	> 100 µM	> 100 µM	> 100 µM									
Cc1nn(-c2ccccc2)c2c1CC(=O)Nc1ccccc1-2			> 100 µM		> 100 µM	> 100 µM	9.19 µM and 1.99 µM	> 100 µM	> 100 µM		0.322 µM	0.384 µM		0.0888 µM	0.432 µM and 0.0872 µM	0.0843 µM	0.623 µM	1.11 µM
Cc1ccc(NC(=O)c2cc3ccccc3c(N=Nc3ccccc3O)c2O)c(C)c1	17.3 µM	2.2 µM	12.1 µM	12.9 µM	14.8 µM	5.87 µM	10.1 µM	10.5 µM										

Reference: PubChem BioAssay (NCI)
